Test results reported in US20190224147A1, “CETP MODULATOR FOR USE IN THE TREATEMENT OF EYE DISEASE” (Hoffmann-La Roche Inc., priority 2013, published 2019).
Marks after values point to notes of the source that are not given here.

Legend:
[1] = Golden Syrian hamsters study b: additional variables measured (cholesterol fractions, triglycerides); assay type: in vivo; conditions: 14 days, dalcetrapib ~300 mg/kg or anacetrapib ~25 mg/kg in diet
Experimental: (§1) Hamsters (7 weeks-old) were fed a standard rodent chow diet containing 4.5% fat and 0.05% cholesterol and coconut oil (70 g/kg dry food) for 14 days. After 2 weeks of high-fat diet feeding, hamsters were allocated to 3 experimental treatment groups of 10 animals each based on plasma lipid levels, and provided the same diet as before supplemented with 0.1% (w/w) FLORAGLO (same composition as for Study 2) and either no treatment (group 1), dalcetrapib at 0.320% (w:w, ˜300 mg/kg, group 2), or anacetrapib at 0.024% (w:w, ˜25 mg/kg, group 3).

[2] = Golden Syrian hamsters study b: lutein and zeaxanthin levels in plasma and liver; assay type: in vivo; conditions: hamsters fed 0.1% FLORAGLO, 14 days, dalcetrapib 0.320% (~300 mg/kg) or anacetrapib 0.024% (~25 mg/kg) in diet
Experimental: as §1, with “3). After 14 days of treatment, plasma and livers were collected for lutein and zeaxanthin analysis as described in study a.” for “3).”

E-selectin expression = conditions: pre-incubation of human aortic endothelial cells; Martin K R et al, Atherosclerosis 2000; cited from earlier work
VCAM-1 expression = conditions: pre-incubation of human aortic endothelial cells; Martin K R et al, Atherosclerosis 2000; cited from earlier work
ICAM-1 = conditions: pre-treatment of human aortic endothelial cells; Martin K R et al, Atherosclerosis 2000; cited from earlier work
[3] = Golden Syrian hamsters study a: lutein and zeaxanthin levels in plasma, liver and eyecups (HPLC-MS); assay type: in vivo; conditions: hamsters fed 0.1% FLORAGLO, dalcetrapib 0.375% food admixture (~400 mg/kg), 14 days
Experimental: Hamsters (7 weeks-old) were fed a standard rodent chow diet containing 4.5% fat and 0.05% cholesterol and coconut oil (70 g/kg dry food) for 14 days. After two weeks of feeding, hamsters were allocated to 2 experimental groups of 10 animals and given the same diet as before supplemented with 0.1% (w:w) FLORAGLO (lutein 5.2%, zeaxanthin 0.5%, DSM Nutritional Products): group 1 received no treatment, group 2 was given dalcetrapib as a 0.375% food admixture (˜400 mg/kg).
After 14 days of treatment and 4 hours of fasting, plasma, liver and eyes were collected and kept frozen until analysis. Lutein and zeaxanthin levels in plasma, liver and the pooled eyecups from 2 hamsters were determined by HPLC-MS using cryptoxanthin as internal standard. Plasma samples were directly extracted with hexane/ethyl acetate in dark environment in the presence of BHT. Liver samples and pooled eye cups (n=4) were first homogenized in the presence of BHT using an appropriate solvent in a Precellys tissue homogenizer followed by saponification prior extraction with hexane/ethyl acetate. The organic phase was washed with water. All organic phases were dried and reconstituted in methanol containing 0.1%. HPLC-MS was accomplished on a Waters TQ-S in APCI mode coupled to an Acquity I-class UPLC (Waters AG, Baden-Dättwil) on an ACCLAIM C30 RP column (Thermo Fisher Scientific, Reinach).

Compound | Triglycerides, in % vs control [1] | VLDL-C, in % vs control [1] | Change in liver lutein, in % vs control [2] | Change in liver zeaxanthin, in % vs control [2] | Change in plasma lutein, in % vs control [2] | Change in plasma zeaxanthin, in % vs control [2] | reduced E-selectin expression (E-selectin expression) [%] | reduced VCAM-1 expression (VCAM-1 expression) [%] | reduced the expression of ICAM-1 (ICAM-1) [%] | other results
COc1cc(F)c(C(C)C)cc1-c1ccc(C(F)(F)F)cc1CN1C(=O)O[C@H](c2cc(C(F)(F)F)cc(C(F)(F)F)c2)[C@@H]1C [anacetrapib] | ns | ns | −32% | −31% | ns | ns |  |  |  | HDL-C, in % vs control [1]: +54*** %; LDL-C, in % vs control [1]: −99*** %; Total cholesterol, in % vs control [1]: +28** %
CC1=C(/C=C/C(C)=C/C=C/C(C)=C/C=C/C=C(C)/C=C/C=C(C)/C=C/C2=C(C)CCCC2(C)C)C(C)(C)CCC1 [beta-carotene] |  |  |  |  |  |  | 38 | 29 | 11 | 
CCC(CC)CC1(C(=O)Nc2ccccc2SC(=O)C(C)C)CCCCC1 [dalcetrapib, S-[2-([[1-(2-ethylbutyl)-cyclohexyl]-carbonyl]amino)phenyl]2-methylpropanethioate] | −37** % | −27* % | +90% | +109% | +95% | +101% |  |  |  | Change in liver lutein, in % vs control ([3]; liver): +107%; Change in liver zeaxanthin, in % vs control ([3]; liver): +222.9%; Change in plasma lutein, in % vs control ([3]; plasma): +55.7%; Change in plasma zeaxanthin, in % vs control ([3]; plasma): +164%; Change in eyecups lutein, in % vs control ([3]; pooled eyecups): +164.6%; Change in eyecups zeaxanthin, in % vs control ([3]; pooled eyecups): +114%
CC1=C[C@H](O)CC(C)(C)[C@H]1/C=C/C(C)=C/C=C/C(C)=C/C=C/C=C(C)/C=C/C=C(C)/C=C/C1=C(C)C[C@@H](O)CC1(C)C [lutein, (3R,3′R,6′R)-β,ε-Carotene-3,3′-diol] |  |  |  |  |  |  | 34 | 28 | 14 | 
CC(C)=CCC/C(C)=C/C=C/C(C)=C/C=C/C(C)=C/C=C/C=C(C)/C=C/C=C(C)/C=C/C=C(\C)CCC=C(C)C [lycopene] |  |  |  |  |  |  |  | 13 | 18 | 
